According to US20200222474A1, “COMPOSITIONS AND METHODS FOR INCREASING PHYTOCHEMICAL BIOAVAILABLITY AND BIOACTIVITY” (North Carolina State University, priority 2017, published 2020):

System: L. acidophilus NCFM
Test: RNA-seq transcriptional analysis of L. acidophilus NCFM growing on plant glycosides
Assay type: cell-based, Lactobacillus acidophilus
[1] = gene LBA0282 (Hypothetical protein)
[2] = gene LBA0327 (Replication protein)
[3] = gene LBA0328 (Hypothetical protein)
[4] = gene LBA0330 (Hypothetical protein)
[5] = gene LBA0457 (Hypothetical protein)
[6] = gene LBA0485 (Hypothetical protein)
[7] = gene LBA0486 (Hypothetical protein)
[8] = gene LBA0487 (Hypothetical protein.)
[9] = gene LBA0492 (Hypothetical protein)
[10] = gene LBA0541 (Cadmium-transporting ATPase)
[11] = gene LBA0542 (Putative heavy-metal-transporting alpase)
[12] = gene LBA0543 (Hypothetical protein)
[13] = gene LBA0544 (Transcriptional regulator)
[14] = gene LBA0555 (Myosin-crossreactive antigen)
[15] = gene LBA0564 (HAD family hydrolase)
[16] = gene LBA0574 (ABC multi drug exporter)
[17] = gene LBA0575 (ABC multi drug exporter)
[18] = gene LBA0604 (Immunity protein)
[19] = gene LBA0605 (Putative hydrolase)
[20] = gene LBA0608 (Hypothetical protein)
[21] = gene LBA0631 (Hypothetical protein)
[22] = gene LBA0649 (Myosin-crossreactive antigen)
[23] = gene LBA0728 (Hypothetical protein LBA0728)
[24] = gene LBA1025 (Aldo/keto reductase family oxidoreductase)
[25] = gene LBA1026 (Aldo/keto reduetase family oxidoreductase)
[26] = gene LBA1206 (Hypothetical protein)
[27] = gene LBA1401 (Peroxidase (Npx))
[28] = gene LBA1435 (Hypothetical protein)
[29] = gene LBA1455 (Putative surface layer protein)
[30] = gene LBA1469 (UDP-glucose 4-epimerase)
[31] = gene LBA1656 (Hypothetical protein)
[32] = gene LBA1675 (Hypothetical protein)
[33] = gene LBA1676 (ATP-dependent helicase)
[34] = gene LBA1683 (Putative magnesium-transporting atpase)
[35] = gene LBA1704 (N-Acetylmuramic acid-6-phosphate etherase)
[36] = gene LBA1740 (Hypothetical protein)
[37] = gene LBA1752 (Hypothetical protein)
[38] = gene LBA1769 (Hypothetical protein)
[39] = gene LBA1793 (Hypothetical protein)
[40] = gene LBA1869 (Beta-phosphoglueomutase)
[41] = gene LBA1895 (Hypothetical protein)
[42] = nTPM on plant glycoside relative to glucose, mid-exponential phase

N#C[C@H](O[C@@H]1O[C@H](CO[C@@H]2O[C@H](CO)[C@@H](O)[C@H](O)[C@H]2O)[C@@H](O)[C@H](O)[C@H]1O)c1ccccc1 [Amygdalin]
Log2 differential normalized TPM ratio compared to glucose [1]: 0.2 | Log2 differential normalized TPM ratio compared to lactose [1]: −0.4 | Transcripts per million (rpm) [1]: 20 rpm | Log2 differential normalized TPM ratio compared to glucose [2]: −0.9 | Log2 differential normalized TPM ratio compared to lactose [2]: −1.1 | Transcripts per million (rpm) [2]: 3.5 rpm | Log2 differential normalized TPM ratio compared to glucose [3]: −0.3 | Log2 differential normalized TPM ratio compared to lactose [3]: −0.3 | Transcripts per million (rpm) [3]: 9 rpm | Log2 differential normalized TPM ratio compared to glucose [4]: 0.1 | Log2 differential normalized TPM ratio compared to lactose [4]: −0.2 | Transcripts per million (rpm) [4]: 18.2 rpm | Log2 differential normalized TPM ratio compared to glucose [5]: 1.6 | Log2 differential normalized TPM ratio compared to lactose [5]: 0.6 | Transcripts per million (rpm) [5]: 1217.8 rpm | Log2 differential normalized TPM ratio compared to glucose [6]: 3.3 | Log2 differential normalized TPM ratio compared to lactose [6]: 0.9 | Transcripts per million (rpm) [6]: 1655 rpm | Log2 differential normalized TPM ratio compared to glucose [7]: 3.7 | Log2 differential normalized TPM ratio compared to lactose [7]: 0.9 | Transcripts per million (rpm) [7]: 2443 rpm | Log2 differential normalized TPM ratio compared to glucose [8]: 2.3 | Log2 differential normalized TPM ratio compared to lactose [8]: 1 | Transcripts per million (rpm) [8]: 132.1 rpm | Log2 differential normalized TPM ratio compared to glucose [9]: 5 | Log2 differential normalized TPM ratio compared to lactose [9]: 2.6 | Transcripts per million (rpm) [9]: 213.1 rpm | Log2 differential normalized TPM ratio compared to glucose [10]: 2 | Log2 differential normalized TPM ratio compared to lactose [10]: −0.2 | Transcripts per million (rpm) [10]: 119.7 rpm | Log2 differential normalized TPM ratio compared to glucose [11]: 2.2 | Log2 differential normalized TPM ratio compared to lactose [11]: 0 | Transcripts per million (rpm) [11]: 320.9 rpm | Log2 differential normalized TPM ratio compared to glucose [12]: 2.4 | Log2 differential normalized TPM ratio compared to lactose [12]: 0 | Transcripts per million (rpm) [12]: 283.1 rpm | Log2 differential normalized TPM ratio compared to glucose [13]: 1.9 | Log2 differential normalized TPM ratio compared to lactose [13]: −0.1 | Transcripts per million (rpm) [13]: 321.3 rpm | Log2 differential normalized TPM ratio compared to glucose [14]: 6 | Log2 differential normalized TPM ratio compared to lactose [14]: 4.1 | Transcripts per million (rpm) [14]: 2251.5 rpm | Log2 differential normalized TPM ratio compared to glucose [15]: 2.3 | Log2 differential normalized TPM ratio compared to lactose [15]: 1.8 | Transcripts per million (rpm) [15]: 4.1 rpm | Log2 differential normalized TPM ratio compared to glucose [16]: −1.2 | Log2 differential normalized TPM ratio compared to lactose [16]: −1.5 | Transcripts per million (rpm) [16]: 31.9 rpm | Log2 differential normalized TPM ratio compared to glucose [17]: −1 | Log2 differential normalized TPM ratio compared to lactose [17]: −1.2 | Transcripts per million (rpm) [17]: 32.6 rpm | Log2 differential normalized TPM ratio compared to glucose [18]: 2 | Log2 differential normalized TPM ratio compared to lactose [18]: 1.6 | Transcripts per million (rpm) [18]: 49.6 rpm | Log2 differential normalized TPM ratio compared to glucose [19]: 3.6 | Log2 differential normalized TPM ratio compared to lactose [19]: 2.6 | Transcripts per million (rpm) [19]: 26.3 rpm | Log2 differential normalized TPM ratio compared to glucose [20]: 3.1 | Log2 differential normalized TPM ratio compared to lactose [20]: 2 | Transcripts per million (rpm) [20]: 239.3 rpm | Log2 differential normalized TPM ratio compared to glucose [21]: 7.2 | Log2 differential normalized TPM ratio compared to lactose [21]: 4 | Transcripts per million (rpm) [21]: 141786.9 rpm | Log2 differential normalized TPM ratio compared to glucose [22]: 2.9 | Log2 differential normalized TPM ratio compared to lactose [22]: 2.1 | Transcripts per million (rpm) [22]: 228.6 rpm | Log2 differential normalized TPM ratio compared to glucose [23]: 6 | Log2 differential normalized TPM ratio compared to lactose [23]: 4.2 | Transcripts per million (rpm) [23]: 129.5 rpm | Log2 differential normalized TPM ratio compared to glucose (gene LBA0861 (Polyferredoxin)): 0 | Log2 differential normalized TPM ratio compared to lactose (gene LBA0861 (Polyferredoxin)): −0.5 | Transcripts per million (rpm) (gene LBA0861 (Polyferredoxin)): 153 rpm | Log2 differential normalized TPM ratio compared to glucose (gene LBA1023 (Oxidoreductase)): −1.5 | Log2 differential normalized TPM ratio compared to lactose (gene LBA1023 (Oxidoreductase)): −1.8 | Transcripts per million (rpm) (gene LBA1023 (Oxidoreductase)): 18.8 rpm | Log2 differential normalized TPM ratio compared to glucose [24]: −1.8 | Log2 differential normalized TPM ratio compared to lactose [24]: −1.8 | Transcripts per million (rpm) [24]: 7.2 rpm | Log2 differential normalized TPM ratio compared to glucose [25]: −1.7 | Log2 differential normalized TPM ratio compared to lactose [25]: −2.1 | Transcripts per million (rpm) [25]: 8.1 rpm | Log2 differential normalized TPM ratio compared to glucose (gene LBA1027 (Oxidoreductase)): 2.9 | Log2 differential normalized TPM ratio compared to lactose (gene LBA1027 (Oxidoreductase)): 1.4 | Transcripts per million (rpm) (gene LBA1027 (Oxidoreductase)): 3613.2 rpm | Log2 differential normalized TPM ratio compared to glucose [26]: 3.2 | Log2 differential normalized TPM ratio compared to lactose [26]: 2 | Transcripts per million (rpm) [26]: 984.2 rpm | Log2 differential normalized TPM ratio compared to glucose [27]: 4.4 | Log2 differential normalized TPM ratio compared to lactose [27]: 2.3 | Transcripts per million (rpm) [27]: 1161.2 rpm | Log2 differential normalized TPM ratio compared to glucose [28]: 7.1 | Log2 differential normalized TPM ratio compared to lactose [28]: 3.3 | Transcripts per million (rpm) [28]: 468.3 rpm | Log2 differential normalized TPM ratio compared to glucose [29]: 2.4 | Log2 differential normalized TPM ratio compared to lactose [29]: 0.8 | Transcripts per million (rpm) [29]: 73.9 rpm | Log2 differential normalized TPM ratio compared to glucose [30]: 2.4 | Log2 differential normalized TPM ratio compared to lactose [30]: −2.6 | Transcripts per million (rpm) [30]: 385.3 rpm | Log2 differential normalized TPM ratio compared to glucose [31]: 2.6 | Log2 differential normalized TPM ratio compared to lactose [31]: 2.1 | Transcripts per million (rpm) [31]: 103.5 rpm | Log2 differential normalized TPM ratio compared to glucose [32]: 2.1 | Log2 differential normalized TPM ratio compared to lactose [32]: 0.6 | Transcripts per million (rpm) [32]: 1397.9 rpm | Log2 differential normalized TPM ratio compared to glucose [33]: 1.9 | Log2 differential normalized TPM ratio compared to lactose [33]: 0.7 | Transcripts per million (rpm) [33]: 953.4 rpm | Log2 differential normalized TPM ratio compared to glucose [34]: 2 | Log2 differential normalized TPM ratio compared to lactose [34]: 2.3 | Transcripts per million (rpm) [34]: 53.6 rpm | Log2 differential normalized TPM ratio compared to glucose [35]: 2.1 | Log2 differential normalized TPM ratio compared to lactose [35]: 1.4 | Transcripts per million (rpm) [35]: 23 rpm | Log2 differential normalized TPM ratio compared to glucose [36]: 0.1 | Log2 differential normalized TPM ratio compared to lactose [36]: −0.7 | Transcripts per million (rpm) [36]: 15.4 rpm | Log2 differential normalized TPM ratio compared to glucose [37]: 0.8 | Log2 differential normalized TPM ratio compared to lactose [37]: 0 | Transcripts per million (rpm) [37]: 12.1 rpm | Log2 differential normalized TPM ratio compared to glucose [38]: 3 | Log2 differential normalized TPM ratio compared to lactose [38]: 1.2 | Transcripts per million (rpm) [38]: 10240.4 rpm | Log2 differential normalized TPM ratio compared to glucose [39]: 2.3 | Log2 differential normalized TPM ratio compared to lactose [39]: −0.5 | Transcripts per million (rpm) [39]: 67 rpm | Log2 differential normalized TPM ratio compared to glucose (gene LBA1796 (ABC exporter)): 2.4 | Log2 differential normalized TPM ratio compared to lactose (gene LBA1796 (ABC exporter)): −0.1 | Transcripts per million (rpm) (gene LBA1796 (ABC exporter)): 39.3 rpm | Log2 differential normalized TPM ratio compared to glucose [40]: 6.7 | Log2 differential normalized TPM ratio compared to lactose [40]: 4.2 | Transcripts per million (rpm) [40]: 670.5 rpm | Log2 differential normalized TPM ratio compared to glucose [41]: 2.8 | Log2 differential normalized TPM ratio compared to lactose [41]: 2.6 | Transcripts per million (rpm) [41]: 152.2 rpm | Log2 Ratio vs Glc, LBA0225 Phospho-β-glucosidase (GH1) [42]: 6.5 | Log2 Ratio vs Glc, LBA0227 PTS EIIC [42]: 9.9 | Log2 Ratio vs Glc, LBA0228 Transcriptional regulator [42]: 6.3 | Log2 Ratio vs Glc, LBA0466 Phosphoenolpyruvate carboxykinase (ATP) [42]: 5.2 | Log2 Ratio vs Glc, LBA0491 PTS EIIC [42]: 4.7 | Log2 Ratio vs Glc, LBA0492 Hypothetical protein [42]: 5 | Log2 Ratio vs Glc, LBA0555 Myosin-cross-reactive antigen/Fatty acid hydratase [42]: 6 | Log2 Ratio vs Glc, LBA0606 PTS EIIBC [42]: 4.9 | Log2 Ratio vs Glc, LBA0631 Hypothetical protein [42]: 7.2 | Log2 Ratio vs Glc, LBA0724 Transcriptional regulator (antiterminator) [42]: 6.4 | Log2 Ratio vs Glc, LBA0725 PTS EIICBA [42]: 9.7 | Log2 Ratio vs Glc, LBA0726 Phospho-β-glucosidase (GH1) [42]: 7.2 | Log2 Ratio vs Glc, LBA0728 Hypothetical protein [42]: 6 | Log2 Ratio vs Glc, LBA0876 PTS EIIC [42]: 4.4 | Log2 Ratio vs Glc, LBA0877 PTS EIIA [42]: 4.6 | Log2 Ratio vs Glc, LBA1401 Peroxidase (Npx) [42]: 4.4 | Log2 Ratio vs Glc, LBA1411 Fumarate reductase flavoprotein subunit [42]: 4 | Log2 Ratio vs Glc, LBA1433 Dihydroxyacetone kinase [42]: 6 | Log2 Ratio vs Glc, LBA1434 Dihydroxyacetone kinase [42]: 6.7 | Log2 Ratio vs Glc, LBA1435 Hypothetical protein [42]: 7.1 | Log2 Ratio vs Glc, LBA1436 Glycerol uptake facilitator protein [42]: 7.2 | Log2 Ratio vs Glc, LBA1632 NAD-dependent aldehyde dehydrogenase [42]: 4.4 | Log2 Ratio vs Glc, LBA1684 PTS EIIA [42]: 6.6 | Log2 Ratio vs Glc, LBA1689 Maltose-6′-phosphate glucosidase (GH4) [42]: 5.3 | Log2 Ratio vs Glc, LBA1701 Melibiose operon regulatory protein [42]: 5.3 | Log2 Ratio vs Glc, LBA1709 Mucus binding protein precursor [42]: 4.5 | Log2 Ratio vs Glc, LBA1797 Hypothetical protein [42]: 4.7 | Log2 Ratio vs Glc, LBA1812 α-Glucosidase II (GH31) [42]: 5.3 | Log2 Ratio vs Glc, LBA1869 β-Phosphoglucomutase [42]: 6.7 | Log2 Ratio vs Glc, LBA1871 Neopullulanase (GH13) [42]: 4.3 | Log2 Ratio vs Glc, LBA1873 Acetate kinase [42]: 4.6 | Log2 Ratio vs Glc, LBA1974 Pyruvate oxidase [42]: 5.5
